Data on ten compounds can be found in patent US20250144067A1, “PERSONALIZED STARVATION THERAPY FOR CANCER” (Faeth Therapeutics, Inc., priority 2021, published 2025).

Structures can show the parent of a compound that is named as a salt. Where two headings read alike, the source gives them in different places.

The subject of test [1] is NCI-H292 lung cancer cells. Kind of test: FDA drug screening, complete media vs cholesterol-free media with simvastatin (TABLE 2). Type of test: cell-based, human.
In test [2] the test system is NCI-H292 lung cancer cells. Kind of test: FDA drug screening, complete media vs cholesterol-free media without statin (TABLE 1). Type of test: cell-based, human.
[3] abbreviates: NCI-H292 cells, FDA drug library screen, cholesterol-free media with simvastatin 0.04 μM.
[4] abbreviates: NCI-H292 cells, FDA drug library screen, complete media.
Where [5] appears, read: complete media vs cholesterol-free media + simvastatin (0.04 μM), >0 enhanced anti-cancer activity, about 0 neutral, <0 antagonist.
The mark [6] stands for this setting: NCI-H292 cells, cholesterol-free media without statin.
The mark [7] stands for this setting: complete vs cholesterol-free media, greater than 0 enhanced anti-cancer activity, about 0 neutral, below 0 antagonists.
The mark [8] stands for this setting: NCI-H292 cells, cholesterol-free media with simvastatin 0.04 μM, FDA drug library screen (TABLE 2).
[9] abbreviates: NCI-H292 cells, complete media, FDA drug library screen (TABLE 2).
The mark [10] stands for this setting: complete media minus cholesterol-free media + simvastatin (0.04 μM), >0 enhanced anti-cancer activity, about 0 neutral, <0 antagonist.
[11] abbreviates: complete media minus cholesterol-free media + simvastatin, >0 enhanced anti-cancer activity, about 0 neutral, <0 antagonist.
The mark [12] stands for this setting: Complete minus Cholesterol-free, >0 enhanced anti-cancer activity, about 0 neutral, <0 antagonist.

As for `C[C@H](CCC(=O)O)[C@H]1CC[C@H]2[C@@H]3[C@@H](O)C[C@@H]4C[C@H](O)CC[C@]4(C)[C@H]3CC[C@]12C` [Ursodiol], the “Cholesterol-free media + simvastatin (0.04 μM)” value in test [1] (setting [3]) stood at 1.413. In test [1] (setting [4]), the “Complete Media” value came out at 1.314. Besides, the values for the Difference in test [1] (setting [5]) and in test [2] (setting [7]) were −0.10 and −0.41, respectively. The Cholesterol-free in test [2] (setting [6]) worked out at 1.392. The Complete in test [2] (NCI-H292 cells, complete media) turned out to be 0.9832.
With `CN1c2c(nc(N)[nH]c2=O)NC[C@@H]1CNc1ccc(C(=O)N[C@@H](CCC(=O)O)C(=O)O)cc1` [Levomefolic acid], the “Cholesterol-free media + simvastatin (0.04 μM)” value in test [1] (setting [8]) stood at 0.9044. Besides, the “Complete Media” value in test [1] (setting [9]) is reported as 0.8568. For the same compound, the values for the Difference in test [1] (setting [10]) and in test [2] (setting [7]) were −0.05 and −0.44, respectively. Further, the Cholesterol-free in test [2] (setting [6]) is 1.808. For the same compound, the Complete in test [2] (NCI-H292 cells, complete media) is reported as 1.368.
`Oc1c(I)cc(I)c2cccnc12` [Diiodohydroxyquinoline]: in test [1] (setting [3]), the “Cholesterol-free media + simvastatin (0.04 μM)” value was 0.94. The “Complete Media” value in test [1] (setting [4]) is given as 1.35. Further, the Difference is given as 0.41 in test [1] (setting [11]) and −0.27 in test [2] (setting [12]). In test [2] (setting [6]), this compound had a Cholesterol-free of 1.098. This compound also had a Complete in test [2] (NCI-H292 cells, complete media) of 0.8284.
Regarding `C=C[C@@H]1C[C@]1(NC(=O)[C@@H]1C[C@@H](Oc2ncc(OC)c3ccc(Cl)cc23)CN1C(=O)[C@@H](NC(=O)OC(C)(C)C)C(C)(C)C)C(=O)NS(=O)(=O)C1CC1` [Asunaprevir], the “Cholesterol-free media + simvastatin (0.04 μM)” value in test [1] (setting [8]) was determined as 1.005. The “Complete Media” value in test [1] (setting [9]) amounted to 0.9979. Also, the Difference was −0.01 in test [1] (setting [10]) and −0.09 in test [2] (Complete minus Cholesterol-free, greater than 0 enhanced anti-cancer activity, about 0 neutral, below 0 antagonist). In addition, the Cholesterol-free in test [2] (NCI-H292 cells, FDA drug library screen, cholesterol-free media without statin) was 1.081. This compound had a Complete in test [2] (setting [4]) of 0.9902.
`CC(C)OC(=O)[C@H](C)N[P@](=O)(CO[C@H](C)Cn1cnc2c(N)ncnc21)Oc1ccccc1` [Tenofovir alafenamide fumarate]: in test [1], the “Cholesterol-free media + simvastatin (0.04 μM)” value amounted to 0.9223, the “Complete Media” value is given as 0.8712 and the Difference is given as −0.05. In test [2], this compound displayed a Cholesterol-free of 0.8261, a Complete of 0.7078 and a Difference of −0.12.
Regarding `COc1ccc2[n-]c([S+]([O-])Cc3ncc(C)c(OC)c3C)nc2c1.COc1ccc2[n-]c([S+]([O-])Cc3ncc(C)c(OC)c3C)nc2c1.[Mg+2]` (centres unmarked) [Esomeprazole magnesium], the “Cholesterol-free media + simvastatin (0.04 μM)” value in test [1] (setting [3]) is reported as 0.8343. Also, in test [1] (setting [4]), the “Complete Media” value is 1.003. The Difference turned out to be 0.17 in test [1] (complete media minus cholesterol-free media + simvastatin, […]) and 0.50 in test [2] (complete vs cholesterol-free media, […]). Also, the Cholesterol-free in test [2] (NCI-H292 cells, cholesterol-free media without statin, FDA drug library screen) amounted to 0.6797.
With `CCCCOc1cc(C(=O)NCCN(CC)CC)c2ccccc2n1` [Dibucaine (hydrochloride)], the “Cholesterol-free media + simvastatin (0.04 μM)” value in test [1] (setting [3]) is reported as 0.7966. Moreover, in test [1] (setting [4]), the “Complete Media” value was determined as 1.391. Further, the Difference in test [1] (setting [11]) is on record as 0.59; in test [2] (Complete minus Cholesterol-free, greater than 0 enhanced anti-cancer activity, about 0 neutral, below 0 antagonists), −0.71. The same compound returned a Cholesterol-free in test [2] (NCI-H292 cells in cholesterol-free media without statin) of 1.433. Also, the Complete in test [2] (NCI-H292 cells in complete media) is reported as 0.7196.
For `COc1ccccc1OCC(O)CN1CCN(CC(=O)Nc2c(C)cccc2C)CC1` (centres unmarked) [Ranolazine], the “Cholesterol-free media + simvastatin (0.04 μM)” value in test [1] (setting [3]) amounted to 1.311. In addition, in test [1] (setting [4]), the “Complete Media” value came to 1.162. The Difference in test [1] (setting [5]) is given as −0.15; in test [2] (setting [7]), −0.41. For the same compound, the Cholesterol-free in test [2] (setting [6]) was 1.774. For the same compound, the Complete in test [2] (NCI-H292 cells, complete media) is on record as 1.359.
Turning to `CC1(C)O[C@@H]2[C@@H](CO[C@@]3(COS(N)(=O)=O)OC(C)(C)O[C@@H]23)O1` [Topiramate], the “Cholesterol-free media + simvastatin (0.04 μM)” value in test [1] (NCI-H292 cells, cholesterol-free media with simvastatin 0.04 μM, cell growth value in FDA drug screen) amounted to 1.666. The “Complete Media” value in test [1] (NCI-H292 cells, complete media, cell growth value in FDA drug screen) was determined as 1.706. For the same compound, the Difference in test [1] (setting [11]) is listed as 0.04; in test [2] (setting [7]), −0.43. Besides, the Cholesterol-free in test [2] (setting [6]) is recorded as 1.406. In test [2] (NCI-H292 cells, complete media), this compound returned a Complete of 0.9724.
For the compound `CC(/C=C1\SC(=S)N(CC(=O)O)C1=O)=C\c1ccccc1` [Epalrestat], the “Cholesterol-free media + simvastatin (0.04 μM)” value in test [1] (setting [3]) was found to be 0.9966. In test [1] (setting [4]), the “Complete Media” value worked out at 0.8579. For the same compound, the Difference in test [1] (setting [5]) is −0.14; in test [2] (setting [12]) it was −0.29. The compound also showed a Cholesterol-free in test [2] (setting [6]) of 1.235. In test [2] (NCI-H292 cells, complete media), this compound yielded a Complete of 0.9425.
